Laboratory results reported in patent US20050197350A1, “Novel quinoline, tetrahydroquinazoline, and pyrimidine derivatives and methods of treatment related to the use thereof” (TAISHO PHARMACEUTICAL CO., LTD., priority 2003, published 2005).
Where two headings read alike, the source gives them in different places.

System: MCH receptors
Experiment: MCH receptor activity class (method not given)
[1] = class by percent of control at 10^-7 M or IC50
[2] = class by percent of control at 10^−7 M or IC50
[3] = MCH receptor, class by percent of control at 10^-7 M or IC50
[4] = activity class per percent of control at 10^-7 M or IC50
[5] = MCH receptor activity class 1-3 (percent of control at 10^-7 M or IC50)
[6] = class 1-3 by percent of control at 10^-7 M or IC50

Structure (SMILES): Cc1cc(C)c(NC(=O)N[C@H]2CC[C@@H](Nc3cc(N(C)C)c4ccccc4n3)CC2)c(C)c1 [compound 2097, N-(cis-4-{[4-(dimethylamino)quinolin-2-yl]amino}cyclohexyl)-N′-mesitylurea]
- class [1]: 1 (Class 1: The value of percent of control at 10^−7 M was less than 40% or the value of IC50 was less than 50 nM.)

Structure (SMILES): Cc1cc(N(C)C)nc(N[C@H]2CC[C@@H](NC(=O)c3cccc(C#N)c3)CC2)n1 [compound 2957, 3-cyano-N-(cis-4-{[4-(dimethylamino)-6-methylpyrimidin-2-yl]amino}cyclohexyl)benzamide]
- class [2]: 1 (Class 1: The value of percent of control at 10^−7 M was less than 40% or the value of IC50 was less than 50 nM.)

Structure (SMILES): Cc1cc(N[C@H]2CC[C@@H](NC(=O)[C@H](O)c3cccc(Cl)c3)CC2)nc2ccccc12 [Example 2555, (2R)-2-(3-chlorophenyl)-2-hydroxy-N-{cis-4-[(4-methylquinolin-2-yl)amino]cyclohexyl}acetamide]
- class: 1

Structure (SMILES): CN(C)c1cc(N[C@H]2CC[C@@H](CNC(=O)CSc3ccccc3)CC2)nc2ccccc12 [compound 190]
- class [3]: 3 (Class 3 The value of percent of control at 10^−7 M was more than 60% or the value of IC50 was more than 200 nM.)

Structure (SMILES): CN(C)c1cc(N[C@H]2CC[C@@H](NC(=O)c3cccc(I)c3)CC2)nc2ccccc12 [compound 58, N-(cis-4-{[4-(dimethylamino)quinolin-2-yl]amino}cyclohexyl)-3-iodobenzamide]
- class [3]: 2 (Class 2: The value of percent of control at 10^−7 M was from 40% to 60% or the value of IC′50 was from 50 nM to 200 nM.)

Structure (SMILES): CN(C)c1cc(N[C@H]2CC[C@@H](NCc3c[nH]c4ccc(Br)cc34)CC2)nc2ccccc12 [compound 1093]
- class [4]: 3 (Class 3 The value of percent of control at 10^−7 M was more than 60% or the value of IC50 was more than 200 nM.)

Structure (SMILES): CN(C)c1cc(N[C@H]2CC[C@@H](NC(=O)c3ccc(F)c(F)c3)CC2)nc2ccccc12 [compound 33, N-(cis-4-{[4-(dimethylamino)quinolin-2-yl]amino}cyclohexyl)-3,4-difluorobenzamide]
- class [3]: 1 (Class 1: The value of percent of control at 10^−7 M was less than 40% or the value of IC50 was less than 50 nM.)

Structure (SMILES): COc1cc(CN[C@H]2CC[C@@H](Nc3nc4c(c(N(C)C)n3)CCCC4)CC2)cc(OC)c1 [compound 1342]
- class [1]: 2 (Class 2: The value of percent of control at 10^−7 M was from 40% to 60% or the value of IC′50 was from 50 nM to 200 nM.)

Structure (SMILES): Cc1cnc(N[C@H]2CC[C@@H](NC(=O)Cc3ccc(Cl)cc3)CC2)nc1N(C)C [compound 2872, 2-(4-chlorophenyl)-N-(cis-4-{[4-(dimethylamino)-5-methylpyrimidin-2-yl]amino}cyclohexyl)acetamide]
- class [2]: 1 (Class 1: The value of percent of control at 10^−7 M was less than 40% or the value of IC50 was less than 50 nM.)

Structure (SMILES): CN(C)c1cc(N[C@H]2CC[C@@H](NC(=O)c3cc(Br)c(Br)s3)CC2)nc2ccccc12 [compound 701]
- class [1]: 2 (Class 2: The value of percent of control at 10^−7 M was from 40% to 60% or the value of IC′50 was from 50 nM to 200 nM.)

Structure (SMILES): Cc1cc(Br)ccc1NC(=S)N[C@H]1CC[C@@H](Nc2nccc(N(C)C)n2)CC1 [compound 2329]
- class [5]: 3 (Class 3 The value of percent of control at 10^−7 M was more than 60% or the value of IC50 was more than 200 nM.)

Structure (SMILES): CN(C)c1ccnc(N[C@H]2CC[C@@H](CNC(=O)c3ccc(C#N)cc3)CC2)n1 [compound 422]
- class [6]: 3 (Class 3 The value of percent of control at 10^−7 M was more than 60% or the value of IC50 was more than 200 nM.)

Structure (SMILES): COc1cccc(Oc2ncccc2C(=O)N[C@H]2CC[C@@H](Nc3ncc(C)c(N(C)C)n3)CC2)c1 [compound 2887, N-(cis-4-{[4-(dimethylamino)-5-methylpyrimidin-2-yl]amino}cyclohexyl)-2-(3-methoxyphenoxy)nicotinamide]
- class [2]: 1 (Class 1: The value of percent of control at 10^−7 M was less than 40% or the value of IC50 was less than 50 nM.)

Structure (SMILES): CN(C)c1nc(N[C@H]2CC[C@@H](CNC(=O)Nc3ccccc3Cl)CC2)nc2c1CCCC2 [compound 2451]
- class [5]: 3 (Class 3 The value of percent of control at 10^−7 M was more than 60% or the value of IC50 was more than 200 nM.)

Structure (SMILES): COc1cc(CN[C@H]2CC[C@@H](Nc3ncc(C)c(N(C)C)n3)CC2)cc(OC)c1 [compound 3000]
- class [2]: 2 (Class 2: The value of percent of control at 10^−7 M was from 40% to 60% or the value of IC′50 was from 50 nM to 200 nM.)

Structure (SMILES): Cc1cc(C(=O)N[C@H]2CC[C@@H](CNc3ncc(C)c(N(C)C)n3)CC2)ccc1Br [compound 2725, 4-bromo-N-[cis-4-({[4-(dimethylamino)-5-methylpyrimidin-2-yl]amino}methyl)cyclohexyl]-3-methylbenzamide]
- class [2]: 2 (Class 2: The value of percent of control at 10^−7 M was from 40% to 60% or the value of IC′50 was from 50 nM to 200 nM.)

Structure (SMILES): CN(C)c1cc(N[C@H]2CC[C@@H](CNC(=O)Nc3c(Cl)cccc3Cl)CC2)nc2ccccc12 [compound 2399]
- class [5]: 3 (Class 3 The value of percent of control at 10^−7 M was more than 60% or the value of IC50 was more than 200 nM.)

Structure (SMILES): CN(C)c1nc(N[C@H]2CC[C@@H](NC(=O)C3(c4ccc(Cl)cc4)CCCC3)CC2)nc2c1CCCC2 [compound 535]
- class [6]: 2 (Class 2: The value of percent of control at 10^−7 M was from 40% to 60% or the value of IC′50 was from 50 nM to 200 nM.)

Structure (SMILES): CC(C(=O)N[C@H]1CC[C@@H](Nc2nc3c(c(N(C)C)n2)CCCC3)CC1)c1ccc(-c2ccccc2)c(F)c1 (relative stereo) [compound 984]
- class [4]: 2 (Class 2: The value of percent of control at 10^−7 M was from 40% to 60% or the value of IC′50 was from 50 nM to 200 nM.)

Structure (SMILES): CN(C)c1ccnc(N[C@H]2CC[C@@H](NC(=O)Nc3ccc(Cl)cc3C(F)(F)F)CC2)n1 [compound 2207]
- class [1]: 3 (Class 3 The value of percent of control at 10^−7 M was more than 60% or the value of IC50 was more than 200 nM.)

Structure (SMILES): COc1ccc(F)cc1CNC[C@H]1CC[C@@H](Nc2nc3c(c(N(C)C)n2)CCCC3)CC1 [compound 1415]
- class [1]: 3 (Class 3 The value of percent of control at 10^−7 M was more than 60% or the value of IC50 was more than 200 nM.)

Structure (SMILES): Cc1cc(Br)cc(C)c1NC(=S)N[C@H]1CC[C@@H](Nc2nc3c(c(N(C)C)n2)CCCC3)CC1 [compound 1763, N-(4-bromo-2,6-dimethylphenyl)-N′-(cis-4-{[4-(dimethylamino)-5,6,7,8-tetrahydroquinazolin-2-yl]amino}cyclohexyl)thiourea]
- class [1]: 1 (Class 1: The value of percent of control at 10^−7 M was less than 40% or the value of IC50 was less than 50 nM.)

Structure (SMILES): CN(C)c1cc(N[C@H]2CC[C@@H](NC(=O)c3cccc(C#N)c3)CC2)nc2ccccc12 [compound 29]
- class [3]: 2 (Class 2: The value of percent of control at 10^−7 M was from 40% to 60% or the value of IC′50 was from 50 nM to 200 nM.)

Structure (SMILES): CC(Oc1ccccc1)C(=O)N[C@H]1CC[C@@H](Nc2cc(N(C)C)c3ccccc3n2)CC1 (relative stereo) [compound 49, N-(cis-4-{[4-(dimethylamino)quinolin-2-yl]amino}cyclohexyl)-2-phenoxypropanamide]
- class [3]: 1 (Class 1: The value of percent of control at 10^−7 M was less than 40% or the value of IC50 was less than 50 nM.)

Structure (SMILES): CN(C)c1cc(N[C@H]2CC[C@@H](NC(=O)c3cc(Cl)cc(Cl)c3)CC2)nc2ccccc12 [compound 30]
- class [3]: 2 (Class 2: The value of percent of control at 10^−7 M was from 40% to 60% or the value of IC′50 was from 50 nM to 200 nM.)

Structure (SMILES): CN(C)c1cc(N[C@H]2CC[C@@H](NC(=O)C(C)(C)Oc3ccc(Cl)cc3)CC2)nc2ccccc12 [compound 139]
- class [3]: 3 (Class 3 The value of percent of control at 10^−7 M was more than 60% or the value of IC50 was more than 200 nM.)

Structure (SMILES): CN(C)c1nc(N[C@H]2CC[C@@H](NC(=O)c3ccc(OC(F)(F)F)c(Cl)c3)CC2)nc2c1CCCC2 [compound 579]
- class [6]: 3 (Class 3 The value of percent of control at 10^−7 M was more than 60% or the value of IC50 was more than 200 nM.)

Structure (SMILES): Cc1cnc(N[C@H]2CC[C@@H](NC(=O)c3cccc(C#N)c3)CC2)nc1N(C)C [compound 2908, 3-cyano-N-(cis-4-{[4-(dimethylamino)-5-methylpyrimidin-2-yl]amino}cyclohexyl)benzamide]
- class [2]: 1 (Class 1: The value of percent of control at 10^−7 M was less than 40% or the value of IC50 was less than 50 nM.)

Structure (SMILES): Cc1cccc(C(C)C)c1NC(=S)N[C@H]1CC[C@@H](Nc2nccc(N(C)C)n2)CC1 [compound 2348]
- class [5]: 3 (Class 3 The value of percent of control at 10^−7 M was more than 60% or the value of IC50 was more than 200 nM.)

Structure (SMILES): COc1cc(OC)cc(C(=O)NC[C@H]2CC[C@@H](Nc3nc4c(c(N(C)C)n3)CCCC4)CC2)c1 [compound 638]
- class [1]: 3 (Class 3 The value of percent of control at 10^−7 M was more than 60% or the value of IC50 was more than 200 nM.)

Structure (SMILES): CN(C)c1nc(N[C@H]2CC[C@@H](NC(=O)c3ccc(F)c(F)c3)CC2)nc2c1CCCC2 [compound 469]
- class [6]: 1 (Class 1: The value of percent of control at 10^−7 M was less than 40% or the value of IC50 was less than 50 nM.)

Structure (SMILES): CN(C)c1nc(N[C@H]2CC[C@@H](CNC(=O)OCC3c4ccccc4-c4ccccc43)CC2)nc2c1CCCC2 [compound 1617]
- class (activity class 1-3: percent of control at 10^-7 M or IC50): 3 (Class 3 The value of percent of control at 10^−7 M was more than 60% or the value of IC50 was more than 200 nM.)

Structure (SMILES): CN(C)c1nc(N[C@H]2CC[C@@H](NC(=S)Nc3ccc(Cl)c(Cl)c3)CC2)nc2c1CCCC2 [compound 1937]
- class [3]: 3 (Class 3 The value of percent of control at 10^−7 M was more than 60% or the value of IC50 was more than 200 nM.)

Structure (SMILES): COc1ccc(OC)c(CC(=O)N[C@H]2CC[C@@H](Nc3nc4c(c(N(C)C)n3)CCCC4)CC2)c1 [compound 471]
- class [6]: 3 (Class 3 The value of percent of control at 10^−7 M was more than 60% or the value of IC50 was more than 200 nM.)

Structure (SMILES): COC(=O)c1ccc(NC(=S)N[C@H]2CC[C@@H](Nc3nc4c(c(N(C)C)n3)CCCC4)CC2)cc1 [compound 2019]
- class [3]: 3 (Class 3 The value of percent of control at 10^−7 M was more than 60% or the value of IC50 was more than 200 nM.)
